How the values were obtained:
[1] = system: HCT116-WT cells; assay: Inhibitory activity against cell proliferation (CellTiter Glo, 6 days), HCT116-WT; format: cell-based; details: 144 h, HCT116-WT cells, 6 days, CellTiter Glo; read-out: HCT116-WT IC50
Description: (§1) HCT116-WT (ATCC, CCL-247) and HCT116 MTAP KO (Nanjing Cobioer, CBP75002) cells were seeded into white low-transparency sterile 96-well cell culture plates at a density of 250 cells per well respectively, and the culture medium was McCoy's 5A Medium+10% FBS. The plates were placed under the condition of 37°C and 5% CO2 to be cultured overnight. The cells were treated with 4-fold serially diluted compounds of 8 concentration points starting at an initial concentration of 10000 nM, and the last two columns were used as control wells to which only DMSO was added. The drug-treated cells were further cultured for 6 days. On day 7, CellTiter Glo® reagent was added at 50 uL per well, and after reaction under shaking for 10 minutes at room temperature, the chemiluminescence signals were detected for the well plates through the chemiluminescence detection method using a BIOTEK H1 multifunctional microplate-reader. The IC50 values for inhibition of the compounds on cell viability were calculated in X1fit 5.0 software. Table 2. IC50 values for inhibition of the compounds on HCT116 MTAP KO/WT cell growth

[2] = system: HCT116 MTAP KO cells; assay: Inhibitory activity against cell proliferation (CellTiter Glo, 6 days), HCT116 MTAP KO; format: cell-based; details: for IC50: Homo sapiens, HCT-116, 144 h, HCT116 MTAP KO cells, 6 days, CellTiter Glo, read-out: HCT116 MTAP KO IC50; for Selectivity HCT 116-WT/ HCT116 MTAP KO: ratio of IC50 HCT116-WT / HCT116 MTAP KO
Description: as §1

IC50 [1] | IC50 [2] | Structure (SMILES) | Selectivity HCT 116-WT/ HCT116 MTAP KO [2]
684 nM | 40 nM | Cc1cc2cc(C(=O)N(Cc3ccc(-c4ccc(N(C)C5CCC5)nc4)cn3)N(C)c3ncccn3)ccc2nc1N [Compound 261, 2-amino-N-((6'-(cyclobutyl(methyl)amino)-[3,3'-bipyridin]-6-yl)methyl)-N',3-dim ethyl-N'-(pyrimidin-2-yl)quinoline-6-carb ohydrazide] | 17.10
2530 nM | 139 nM | Cc1cc2cc(C(=O)N(Cc3ccc(C(F)(F)F)cn3)n3ccc4ccccc43)ccc2nc1N [Example 28, 2-amino-N-(1H-indol-1-yl)-3-methyl-N-((5-(trifluoromethyl)pyridin-2-yl)methyl)quinoline-6-carboxamide] | 18.22
222 nM | 21 nM | CC1OCc2c1c(N)nc1ccc(C(=O)N(Cc3ccc(C(F)(F)F)cn3)N(C)c3ncccn3)cc21 (stereo not drawn) [Example 70, 4-amino-N',3-dimethyl-N'-(pyrimidin-2-yl)-N-((5-(trifluoromethyl)pyridin-2-yl)methyl)-1,3-dihydrofuro[3,4-c]quinoline-8-carbohydrazide] | 10.57
90 nM | 4.4 nM | CN(c1ncccc1F)N(Cc1ccc(C(F)(F)F)cn1)C(=O)c1ccc2nc(N)c3cnn(C)c3c2c1 [Example 74, 4-amino-N'-(3-fluoropyridin-2-yl)-N ',1-dimethyl-N-((5-(trifluoromethyl)pyridin-2-yl)methyl)-1H-pyrazolo[4,3-c]quinoline-8-carbohydrazide] | 20.45
3950 nM | 202 nM | CN(c1ncccn1)N(Cc1ccc(C(F)(F)F)cn1)C(=O)c1ccc2nc(N)c(Cl)cc2c1 [Example 105, 2-amino-3-chloro-N'-methyl-N'-(pyrimidin-2-yl)-N-((5-(trifluoromethyl)pyridin-2-yl)methyl)quinoline-6-carbohydrazide] | 19.56
3420 nM | 290 nM | Cc1cc2cc(C(=O)N(Cc3ccc(-c4cc[nH]c(=O)c4)cn3)N(C)c3ncccn3)ccc2nc1N [Example 138, 2-amino-N',3-dimethyl-N-((2'-oxo-1',2'-dihydro-[3,4'-bipyridine]-6-yl)methyl)-N'-(pyrimidin-2-yl)quinoline-6-carbohydrazide] | 11.79
3360 nM | 192 nM | Cc1cc2cc(C(=O)N(Cc3ccc(-c4ccc(=O)[nH]c4)cn3)N(C)c3ncccn3)ccc2nc1N [Example 143, 2-amino-N',3-dimethyl-N-((6'-oxo-1',6'-dihydro-[3,3'-bipyridine]-6-yl)methyl)-N'-(pyrimidin-2-yl)quinoline-6-carbohydrazide] | 17.49
1190 nM | 75 nM | Cc1csc(-c2ccc(CN(C(=O)c3ccc4nc(N)c(C)cc4c3)N(C)c3ncccn3)nc2)c1 [Example 146, 2-amino-N',3-dimethyl-N-((5-(4-methylthien-2-yl)pyridin-2-yl)methyl)-N'-(pyrimidin-2-yl)quinoline-6-carbohydrazide] | 15.85
708 nM | 29 nM | Cc1cc2cc(C(=O)N(Cc3ccc(-c4cnc5nn(C)cc5c4)cn3)N(C)c3ncccn3)ccc2nc1N [Example 150, 2-amino-N',3-dimethyl-N-((5-(2-methyl-2H-pyrazolo[3,4-b]pyridin-5-yl)pyridin-2-yl)methyl)-N'-(pyrimidin-2-yl)quinoline-6-carbohydrazide] | 24.41
640 nM | 35 nM | Cc1cc2cc(C(=O)N(Cc3ccc(-c4cnn(C(F)(F)F)c4)cn3)N(C)c3ncccc3F)ccc2nc1N [Example 170, 2-amino-N'-(3-fluoropyridin-2-yl)-N ',3-dimethyl-N-((5-(1-(trifluoromethyl)-1 H-pyrazol-4-yl)pyridin-2-yl)methyl)quin oline-6-carbohydrazide] | 18.29
